Earlier results in patent US20170056332A1, “HEMORRHOID PREPARATION AND SHEETS” (C.B. Fleet Company, Incorporated, priority 2015, published 2017).

Settings: in the presence of menthol; Obata et al. 1990

## CC1CCC(C(C)C)C(O)C1 (stereo not shown) [Menthol]
  percutaneous absorption of hydrophilic diclofenac sodium: substantially enhanced
